pIC50: −log10 of the molar value.
Legend:
K-Ras G12V = molecular target: T1, K-Ras G12V (Homo sapiens, UniProt P01116, G12V); assay: HTRF resonance energy transfer assay, K-Ras G12V / SOS1 interaction; type: biochemical; conditions: HTRF assay of Example 5; read-out: IC50 against K-Ras G12V
T1 construct: made in house; host or cells: E. coli BL21 (DE3)
Procedure, shortened: (§1)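 Buffer about 5 mM HEPES pH 7.4 with ~150 mM NaCl, ~1 mM DTT, 0.05% BSA, 0.0025% (v/v) Igepal. Protein constructs used at molarity matching the IC50 range studied (e.g. ~500 nM). FRET between tagged K-Ras and hSOS1 measured after short incubation.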

A549 cells = assay: Ras cellular assay, growth of cells with K-Ras G12S mutation (CellTiter-Glo); type: cell-based; conditions: Homo sapiens, cell growth, Example 9, G12S mutation, read-out: IC50 against A549 cells
Procedure, shortened: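 Growth inhibition IC50 values come from four-parameter fits of CellTiter-Glo luminescence, read about 6 days after compound addition. G12S-mutant A549 cells (e.g. 800/well, RPMI-1640 + 10% heat-inactivated FBS) were plated in tissue-culture-treated or ultra-low-attachment 384-well format. Dosing began the following day with serial dilutions, e.g. 10 points, 3-fold.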

K-Ras G12S = molecular target: T2, K-Ras G12S (Homo sapiens, UniProt P01116, G12S); assay: HTRF resonance energy transfer assay, K-Ras G12S / SOS1 interaction; type: biochemical; conditions: HTRF assay of Example 5; read-out: IC50 against K-Ras G12S
T2 construct: made in house; host or cells: E. coli BL21 (DE3)
Procedure, shortened: as §1

K-Ras G12D = molecular target: T3, K-Ras G12D (Homo sapiens, UniProt P01116, G12D); assay: HTRF resonance energy transfer assay, K-Ras G12D / SOS1 interaction; type: biochemical; conditions: HTRF assay of Example 5; read-out: IC50 against K-Ras G12D
T3 construct: made in house; host or cells: E. coli BL21 (DE3)
Procedure, shortened: as §1

SW620 cells = assay: Ras cellular assay, growth of cells with K-Ras G12V mutation (CellTiter-Glo); type: cell-based; conditions: Homo sapiens, SW-620; cell growth, Example 9, G12V mutation; read-out: IC50 against SW620 cells
Procedure, shortened: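 IC50 values came from a four-parameter fit of CellTiter-Glo viability, read roughly 6 days after dosing with e.g. a 10-point threefold dilution series. G12V-mutant SW620 cells (e.g. 800 per well) had been plated the previous day in RPMI-1640/10% heat-inactivated FBS, on tissue culture-treated or ultra-low attachment plates.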

K-Ras WT = molecular target: T4, K-Ras WT (Homo sapiens, UniProt P01116); assay: HTRF resonance energy transfer assay, K-Ras WT / SOS1 interaction; type: biochemical; conditions: HTRF assay of Example 5; read-out: IC50 against K-Ras WT
T4 construct: made in house; host or cells: E. coli BL21 (DE3)
Procedure, shortened: as §1

T1 sequence (P01116 1-188 isoform P01116-2 G12V): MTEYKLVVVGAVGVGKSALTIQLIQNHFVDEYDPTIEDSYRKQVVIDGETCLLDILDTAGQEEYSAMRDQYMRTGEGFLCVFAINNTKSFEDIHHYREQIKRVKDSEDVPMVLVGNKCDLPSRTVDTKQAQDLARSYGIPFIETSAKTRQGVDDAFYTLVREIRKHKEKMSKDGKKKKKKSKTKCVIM
T4 sequence (P01116 1-188 isoform P01116-2): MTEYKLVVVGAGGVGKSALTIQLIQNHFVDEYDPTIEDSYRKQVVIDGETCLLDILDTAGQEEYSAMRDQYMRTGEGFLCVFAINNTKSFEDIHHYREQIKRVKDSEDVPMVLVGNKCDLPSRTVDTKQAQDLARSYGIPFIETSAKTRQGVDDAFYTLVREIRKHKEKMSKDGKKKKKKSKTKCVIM
T3 sequence (P01116 1-188 isoform P01116-2 G12D): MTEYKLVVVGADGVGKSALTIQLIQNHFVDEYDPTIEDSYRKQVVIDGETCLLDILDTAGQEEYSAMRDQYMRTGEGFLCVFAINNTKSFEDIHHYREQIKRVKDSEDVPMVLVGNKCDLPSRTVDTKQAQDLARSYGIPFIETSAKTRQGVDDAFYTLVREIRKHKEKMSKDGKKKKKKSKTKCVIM
T2 sequence (P01116 1-188 isoform P01116-2 G12S): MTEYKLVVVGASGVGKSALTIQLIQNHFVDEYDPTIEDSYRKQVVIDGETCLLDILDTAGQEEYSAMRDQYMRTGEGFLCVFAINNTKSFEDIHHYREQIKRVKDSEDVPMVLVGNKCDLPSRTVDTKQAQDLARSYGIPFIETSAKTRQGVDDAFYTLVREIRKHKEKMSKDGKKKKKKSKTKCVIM

pIC50 (K-Ras G12V) | pIC50 (A549 cells) | pIC50 (K-Ras G12S) | pIC50 (K-Ras G12D) | pIC50 (SW620 cells) | pIC50 (K-Ras WT) | SMILES
> 7.00 | > 5.30 | > 7.00 | > 7.00 | > 5.30 | > 7.00 | CC1Oc2c(Cl)c(-c3ccc(F)c4sc(N)c(C#N)c34)c(F)c3nc(OC[C@@]45CCCN4C[C@H](F)C5)nc(c23)N(C2CC2)C1C (stereo partly drawn) [Compound 929, 2-amino-4-(8-chloro-4-cyclopropyl-10-fluoro-2-(((2R,7aS)-2-fluorotetrahydro-1H-pyrrolizin-7a(5H)-yl)methoxy)-5,6-dimethyl-5,6-dihydro-4H-[1,4]oxazepino[5,6,7-de]quinazolin-9-yl)-7-fluorobenzo[b]thiophene-3-carbonitrile]
> 7.00 | > 5.30 | > 7.00 | > 7.00 | > 5.30 | > 7.00 | C[C@H]1CN([C@@H]2CCOC2)c2nc(OC[C@@]34CCCN3C[C@H](F)C4)nc3c(F)c(-c4ccc(F)c5sc(N)c(C#N)c45)c(Cl)c(c23)O1 [Compound 958, 2-amino-4-((6S)-8-chloro-10-fluoro-2-(((2R,7aS)-2-fluorotetrahydro-1H-pyrrolizin-7a(5H)-yl)methoxy)-6-methyl-4-((R)-tetrahydrofuran-3-yl)-5,6-dihydro-4H-[1,4]oxazepino[5,6,7-de]quinazolin-9-yl)-7-fluorobenzo[b]thiophene-3-carbonitrile]
> 7.00 | > 5.30 | > 7.00 | > 7.00 | > 5.30 | > 7.00 | N#Cc1c(N)sc2c(F)ccc(-c3c(Cl)c4c5c(nc(OC[C@@]67CCCN6C[C@H](F)C7)nc5c3F)N(C3CCOC3)CCCO4)c12 (stereo partly drawn) [Compound 1205, 2-amino-4-(9-chloro-11-fluoro-2-(((2R,7aS)-2-fluorotetrahydro-1H-pyrrolizin-7a(5H)-yl)methoxy)-4-(tetrahydrofuran-3-yl)-4,5,6,7-tetrahydro-[1,5]oxazocino[4,3,2-de]quinazolin-10-yl)-7-fluorobenzo[b]thiophene-3-carbonitrile]
> 7.00 | > 5.30 | > 7.00 | > 7.00 | > 5.30 | > 7.00 | N#Cc1c(N)sc2c(F)ccc(-c3c(Cl)c4c5c(nc(OC[C@@]67CCCN6C[C@H](F)C7)nc5c3F)N(C3CC(NC=O)C3)CCO4)c12 (stereo partly drawn) [Compound 836, N-(3-(9-(2-amino-3-cyano-7-fluorobenzo[b]thiophen-4-yl)-8-chloro-10-fluoro-2-(((2R,7aS)-2-fluorotetrahydro-1H-pyrrolizin-7a(5H)-yl)methoxy)-5,6-dihydro-4H-[1,4]oxazepino[5,6,7-de]quinazolin-4-yl)cyclobutyl)formamide]
> 7.00 | > 5.30 | > 7.00 | > 7.00 | > 5.30 | > 7.00 | N#Cc1c(N)sc2c(F)ccc(-c3c(Cl)c4c5c(nc(OC[C@@]67CCCN6C[C@H](F)C7)nc5c3F)N(C3CCC(NC=O)C3)CCO4)c12 (stereo partly drawn) [Compound 829, N-(3-(9-(2-amino-3-cyano-7-fluorobenzo[b]thiophen-4-yl)-8-chloro-10-fluoro-2-(((2R,7aS)-2—fluorotetrahydro-1H-pyrrolizin-7a(5H)-yl)methoxy)-5,6-dihydro-4H-[1,4]oxazepino[5,6,7-de]quinazolin-4-yl)cyclopentyl)formamide]
> 7.00 | > 5.30 | > 7.00 | > 7.00 | > 5.30 | > 7.00 | CN(CCN1CCOc2c(Cl)c(-c3ccc(F)c4sc(N)c(C#N)c34)c(F)c3nc(OC[C@@]45CCCN4C[C@H](F)C5)nc1c23)C(=O)C1CCC1 [Compound 895, N-(2-(9-(2-amino-3-cyano-7-fluorobenzo[b]thiophen-4-yl)-8-chloro-10-fluoro-2-(((2R,7aS)-2-fluorotetrahydro-1H-pyrrolizin-7a(5H)-yl)methoxy)-5,6-dihydro-4H-[1,4]oxazepino[5,6,7-de]quinazolin-4-yl)ethyl)-N-methylcyclobutanecarboxamide]
> 7.00 | > 5.30 | > 7.00 | > 7.00 | > 5.30 | > 7.00 | N#Cc1c(N)sc2c(F)ccc(-c3c(Cl)c4c5c(nc(OC[C@@]67CCCN6C[C@H](F)C7)nc5c3F)N(C3CCN(C(=O)C(F)Cl)C3)CCO4)c12 (stereo partly drawn) [Compound 949, 2-amino-4-(8-chloro-4-(1-(2-chloro-2-fluoroacetyl)pyrrolidin-3-yl)-10-fluoro-2-(((2R,7aS)-2-fluorotetrahydro-1H-pyrrolizin-7a(5H)-yl)methoxy)-5,6-dihydro-4H-[1,4]oxazepino[5,6,7-de]quinazolin-9-yl)-7-fluorobenzo[b]thiophene-3-carbonitrile]
> 7.00 | > 5.30 | > 7.00 | > 7.00 | > 5.30 | > 7.00 | N#Cc1c(N)sc2c(F)ccc(-c3c(Cl)c4c5c(nc(OC[C@@]67CCCN6C[C@H](F)C7)nc5c3F)N(CC(F)F)CC(C3CC3)O4)c12 (stereo partly drawn) [Compound 1128, 2-amino-4-(8-chloro-6-cyclopropyl-4-(2,2-difluoroethyl)-10-fluoro-2-(((2R,7aS)-2-fluorotetrahydro-1H-pyrrolizin-7a(5H)-yl)methoxy)-5,6-dihydro-4H-[1,4]oxazepino[5,6,7-de]quinazolin-9-yl)-7-fluorobenzo[b]thiophene-3-carbonitrile]
> 7.00 | > 5.30 | > 7.00 | > 7.00 | > 5.30 | > 7.00 | CC(=O)NC1CC(N2CCOc3c(Cl)c(-c4ccc(F)c5sc(N)c(C#N)c45)c(F)c4nc(OC[C@@]56CCCN5C[C@H](F)C6)nc2c34)C1 (stereo partly drawn) [Compound 623, N-(3-(9-(2-amino-3-cyano-7-fluorobenzo[b]thiophen-4-yl)-8-chloro-10-fluoro-2-(((2R,7aS)-2-fluorotetrahydro-1H-pyrrolizin-7a(5H)-yl)methoxy)-5,6-dihydro-4H-[1,4]oxazepino[5,6,7-de]quinazolin-4-yl)cyclobutyl)acetamide]
> 7.00 | > 5.30 | > 7.00 | > 7.00 | > 5.30 | > 7.00 | CC(O)CC1COc2c(Cl)c(-c3ccc(F)c4sc(N)c(C#N)c34)c(F)c3nc(OC[C@@]45CCCN4C[C@H](F)C5)nc(c23)N1CC(F)F (stereo partly drawn) [Compound 659, 2-amino-4-(8-chloro-4-(2,2-difluoroethyl)-10-fluoro-2-(((2R,7aS)-2-fluorotetrahydro-1H-pyrrolizin-7a(5H)-yl)methoxy)-5-(2-hydroxypropyl)-5,6-dihydro-4H-[1,4]oxazepino[5,6,7-de]quinazolin-9-yl)-7-fluorobenzo[b]thiophene-3-carbonitrile]
> 7.00 | > 5.30 | > 7.00 | > 7.00 | > 5.30 | > 7.00 | N#Cc1c(N)sc2c(F)ccc(-c3c(Cl)c4c5c(nc(OC[C@@]67CCCN6C[C@H](F)C7)nc5c3F)N(C3CCC(C#N)C3)CCO4)c12 (stereo partly drawn) [Compound 684, 2-amino-4-(8-chloro-4-(3-cyanocyclopentyl)-10-fluoro-2-(((2R,7aS)-2-fluorotetrahydro-1H-pyrrolizin-7a(5H)-yl)methoxy)-5,6-dihydro-4H-[1,4]oxazepino[5,6,7-de]quinazolin-9-yl)-7-fluorobenzo[b]thiophene-3-carbonitrile]
> 7.00 | > 5.30 | > 7.00 | > 7.00 | > 5.30 | > 7.00 | CC1CCOc2c(Cl)c(-c3ccc(F)c4sc(N)c(C#N)c34)c(F)c3nc(OC[C@@]45CCCN4C[C@H](F)C5)nc(c23)N1C1CC1 (stereo partly drawn) [Compound 1215, 2-amino-4-(9-chloro-4-cyclopropyl-11-fluoro-2-(((2R,7aS)-2-fluorotetrahydro-1H-pyrrolizin-7a(5H)-yl)methoxy)-5-methyl-4,5,6,7-tetrahydro-[1,5]oxazocino[4,3,2-de]quinazolin-10-yl)-7-fluorobenzo[b]thiophene-3-carbonitrile]

SMILES | pIC50 (K-Ras G12V) | pIC50 (A549 cells) | pIC50 (K-Ras G12S) | pIC50 (K-Ras G12D) | pIC50 (SW620 cells) | pIC50 (K-Ras WT)
N#Cc1c(N)sc2c(F)ccc(-c3c(Cl)c4c5c(nc(OC[C@@]67CCCN6C[C@H](F)C7)nc5c3F)N(C3CC(NC(=O)[C@@H]5N[C@H]5C5CC5)C3)CCO4)c12 (stereo partly drawn) [Compound 1082, (2R,3S)-N-(3-(9-(2-amino-3-cyano-7-fluorobenzo[b]thiophen-4-yl)-8-chloro-10-fluoro-2-(((2R,7aS)-2-fluorotetrahydro-1H-pyrrolizin-7a(5H)-yl)methoxy)-5,6-dihydro-4H-[1,4]oxazepino[5,6,7-de]quinazolin-4-yl)cyclobutyl)-3-cyclopropylaziridine-2-carboxamide] | > 7.00 | > 5.30 | > 7.00 | > 7.00 | > 5.30 | > 7.00

From US12209102B2, “Heterocyclic compounds and uses thereof” (Kumquat Biosciences Inc., priority 2022, dated 2025)
